From PubChem BioAssay (NCI)
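Grown in 96-well plates, cells were treated for 48 hours with each compound at five concentrations. Insufficient inhibition: endpoint recorded as highest concentration tested. TGI is the concentration that stops growth completely.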

Columns and labels:
Assay in all cases: NCI tumour cell line growth inhibition, 48 h
[1] = tested on: UACC-257 melanoma
[2] = tested on: NCI-H460 lung
[3] = tested on: MDA-N
[4] = tested on: NCI-H226 lung
[5] = tested on: HL-60(TB) leukemia
[6] = tested on: OVCAR-4 ovarian
[7] = tested on: T-47D breast
[8] = tested on: DU-145 prostate
[9] = tested on: SN12C renal
[10] = tested on: NCI-H23 lung
[11] = tested on: IGROV1 ovarian

SMILES | TGI [1] [µM] | TGI [2] [µM] | TGI [3] [µM] | TGI [4] [µM] | TGI [5] [µM] | TGI [6] [µM] | TGI [7] [µM] | TGI [8] [µM] | TGI [9] [µM] | TGI [10] [µM] | TGI [11] [µM]
CC1CCC2(O)C3(C)CC4(O)OC2(C1O)C1(O)C3(O)C(OC(=O)c2ccc[nH]2)C(O)(C(C)C)C41C (centres undefined) | > 100 | > 100 | > 100 | > 100 | > 100 | > 100 | > 100 | > 100 | > 100 | > 100 | > 100
N#CN=[N+]([O-])c1ccc(C(=O)O)cc1 | 32.7 | > 100 |  | 40.9 |  | 35.8 |  |  |  | 33.7 | > 100
O=C1CSC(=S)N1 | > 100 | > 100 | > 100 | > 100 | > 100 |  | > 100 | > 100 | > 100 | > 100 | > 100
COc1ccc2nc3cc(Cl)ccc3c(NCCNC(=O)Cn3c(=O)n(C)c(=O)c4c3nc3c(c(=O)n(C)c(=O)n3C)[n+]4[O-])c2c1 | > 55.9 | > 100 | > 100 | > 80.1 | > 100 | > 100 | > 100 | > 100 | > 100 | 56 | 61.6
CSc1nc(NC2OCC(O)C(O)C2O)c(N)c(=O)[nH]1 (centres undefined) | > 100 | > 100 |  | > 100 | > 100 | > 100 |  |  | > 100 | > 100 | > 100
S=c1nc(N2CCCCC2)c2cn[nH]c2[nH]1 | > 100 | > 100 |  | > 100 | 69.9 | > 100 | > 100 | > 100 | > 100 | > 100 | 56.5
NCCCOc1ccc([N+](=O)[O-])cc1Cl | > 100 | > 100 |  | > 100 | > 100 | > 100 |  |  |  | > 100 | > 100
O=C1NC2=C(CCCC/C2=N\O)C12CCCCC2 | > 100 | > 100 |  | > 100 | > 100 | > 100 |  |  | > 100 | > 100 | > 100
Brc1ccc(C2CC(c3cccc4ccccc34)=Nc3ccccc3S2)cc1 (centres undefined) | > 100 | > 100 |  | > 100 | > 100 | > 100 |  |  | > 100 | > 100 | > 100
